Results from article PMC12297698 (Scientific Reports, 2025).

Molecular target: T1, Caspase-3 (Recombinant human Caspase-3 protein (Active)) (Homo sapiens, UniProt P42574)
T1 sequence (P42574 29-175): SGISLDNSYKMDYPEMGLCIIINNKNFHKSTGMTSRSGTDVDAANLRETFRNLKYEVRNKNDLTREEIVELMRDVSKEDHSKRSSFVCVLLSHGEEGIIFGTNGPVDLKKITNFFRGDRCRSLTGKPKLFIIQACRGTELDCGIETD
T1 sequence (P42574 176-277): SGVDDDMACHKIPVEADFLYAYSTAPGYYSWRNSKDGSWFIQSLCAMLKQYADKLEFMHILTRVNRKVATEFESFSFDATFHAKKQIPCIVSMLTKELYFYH
Assay: SPR, Biacore T200, CM5 chip, immobilised caspase-3
Format: binding

Kd: 76.7 µM
SMILES: OC[C@H]1O[C@@H](OCCc2ccc(O)cc2)[C@H](O)[C@@H](O)[C@@H]1O [Salidroside]
